# Reference: PubChem BioAssay (NCI)
#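 Step 1: Grow cells in 96-well plates. Step 2: Expose to compound for 48 hours at 5 concentrations. Step 3: Interpolate endpoints linearly; if unreached, use highest concentration. Here, GI50 denotes the concentration required for 50% inhibition of growth. TGI: total growth inhibition.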 Where a SMILES comes first, the peptide text is derived from it. The star is where a group is joined. Boc = CC(C)(C)OC(=O)*; OBn = c1ccc(CO*)cc1
# Columns and labels:
# Test in all cases: inhibition of tumour cell growth, NCI panel, 48 h
# HCT-15 colon = tested on: HCT-15 colon
# HOP-62 NSCLC = tested on: HOP-62 NSCLC
# MDA-MB-435 = tested on: MDA-MB-435
# SNB-78 CNS = tested on: SNB-78 CNS
# LXFL 529 NSCLC = tested on: LXFL 529 NSCLC
# KM20L2 colon = tested on: KM20L2 colon
# M19-MEL melanoma = tested on: M19-MEL melanoma
# DMS 114 small cell lung = tested on: DMS 114 small cell lung
# HOP-18 NSCLC = tested on: HOP-18 NSCLC
# DMS 273 small cell lung = tested on: DMS 273 small cell lung
# DLD-1 colon = tested on: DLD-1 colon
# XF 498 CNS = tested on: XF 498 CNS
smiles,measurement,setting,value
c1ccc2cc(CNCCOCCOCCNCc3ccc4ccccc4c3)ccc2c1,TGI,HCT-15 colon,3.46 µM
same,TGI,HOP-62 NSCLC,4.01 µM
same,TGI,MDA-MB-435,3.81 µM
O=C(CCCN1CCC2(CC1)CC(=O)N(N1CCCCCC1)C2=O)c1ccc(F)cc1,TGI,HCT-15 colon,> 100 µM
same,TGI,HOP-62 NSCLC,> 100 µM
same,TGI,MDA-MB-435,> 100 µM
COC(=O)C1(Cc2ccc3c(c2)CCC3)Cc2ccc3c(c2C1)CCC3 (stereo not given),TGI,HCT-15 colon,> 100 µM
same,TGI,HOP-62 NSCLC,> 100 µM
same,TGI,MDA-MB-435,39 µM
CCOc1ncn(-c2ccc(NC(=S)NC34CC5CC(CC(C5)C3)C4)cc2)n1,TGI,HCT-15 colon,> 100 µM
same,TGI,HOP-62 NSCLC,> 100 µM
same,TGI,MDA-MB-435,> 100 µM
COc1ccc(C2(O)c3ccccc3C(=O)N(C)C2(O)c2ccc(OC)cc2)cc1 (stereo not given),TGI,HCT-15 colon,> 100 µM
same,TGI,HOP-62 NSCLC,> 100 µM
same,TGI,MDA-MB-435,42.2 µM
c1ccc(C2OCCO2)c(OCCOc2cc(OCCOc3ccccc3C3OCCO3)c(OCCOc3ccccc3C3OCCO3)cc2OCCOc2ccccc2C2OCCO2)c1,TGI,HCT-15 colon,> 100 µM
same,TGI,SNB-78 CNS,28 µM
same,TGI,HOP-62 NSCLC,28.6 µM
same,TGI,LXFL 529 NSCLC,> 100 µM
same,TGI,KM20L2 colon,> 100 µM
same,TGI,M19-MEL melanoma,> 100 µM
same,TGI,DMS 114 small cell lung,29.9 µM
same,TGI,HOP-18 NSCLC,> 100 µM
same,TGI,DMS 273 small cell lung,50.9 µM
same,TGI,DLD-1 colon,> 100 µM
CC12c3c4cc(Br)cc3Oc3cc(Br)cc(c31)Oc1cc(Br)cc(c12)O4,TGI,HCT-15 colon,> 100 µM
same,TGI,HOP-62 NSCLC,> 100 µM
same,TGI,MDA-MB-435,> 100 µM
COC(=O)CC(=O)Nc1sccc1S(=O)(=O)c1ccccc1,TGI,HCT-15 colon,> 100 µM
same,TGI,MDA-MB-435,> 100 µM
O=C1/C(=C/c2c(Cl)[nH]c3ccccc23)c2ccccc2N1c1ccccc1,TGI,HCT-15 colon,15 µM
same,TGI,HOP-62 NSCLC,26.1 µM
same,TGI,MDA-MB-435,4.12 µM
CCOP(=O)(OCC)C1=C(c2ccccc2)OC(N)=C(C#N)C1c1ccc(Cl)cc1 (stereo not given),TGI,HCT-15 colon,> 100 µM
same,TGI,HOP-62 NSCLC,> 100 µM
same,TGI,MDA-MB-435,> 100 µM
COc1ccc(-c2cc(=O)c3cc4c(cc3[nH]2)OCO4)cc1,TGI,HCT-15 colon,> 100 µM
same,TGI,XF 498 CNS,> 100 µM
same,TGI,HOP-62 NSCLC,> 100 µM
same,TGI,LXFL 529 NSCLC,> 100 µM
same,TGI,KM20L2 colon,> 100 µM
same,TGI,M19-MEL melanoma,> 100 µM
same,TGI,DMS 114 small cell lung,> 100 µM
same,TGI,DMS 273 small cell lung,> 100 µM
same,TGI,DLD-1 colon,> 100 µM
CCN(CC)C(=S)N=Nc1c(O)[nH]c2ccccc12,TGI,HCT-15 colon,19.6 µM
same,TGI,HOP-62 NSCLC,12.6 µM
same,TGI,MDA-MB-435,18.8 µM
CC(C)CCc1n[nH]c(=O)n1/N=C\c1ccccc1,TGI,HCT-15 colon,> 100 µM
same,TGI,HOP-62 NSCLC,> 100 µM
same,TGI,MDA-MB-435,> 100 µM
Oc1ccc(/C=C/c2ccc3cccc(O)c3n2)cc1O,TGI,HCT-15 colon,> 100 µM
same,TGI,HOP-62 NSCLC,84.6 µM
same,TGI,MDA-MB-435,> 100 µM
CC(C)CC(NC(=O)C(CCI)Cc1ccccc1)C(=O)Nc1ccccc1 (stereo not given),TGI,HCT-15 colon,> 100 µM
same,TGI,MDA-MB-435,> 100 µM
CC(NC(=O)C(Cc1ccccc1)NC(=O)C(Cc1ccccc1)NC(=O)OC(C)(C)C)C(=O)OCc1ccccc1 (stereo not drawn) (Boc-Phe-Phe-Ala-OBn; configuration not given here),TGI,HOP-62 NSCLC,> 100 µM
same,TGI,MDA-MB-435,> 100 µM
O=C(CNC(=O)OCc1ccccc1)NCCCCC(NC(=O)OCc1ccccc1)C(=O)NC(CCCCNC(=O)CNC(=O)OCc1ccccc1)C(=O)OCc1ccccc1 (stereo not given),TGI,HCT-15 colon,> 62.5 µM
same,TGI,HOP-62 NSCLC,> 62.5 µM
same,TGI,MDA-MB-435,> 62.5 µM
CC(=O)O[C@H]1CCn2c3c(c(C)c21)C(=O)C(N1CC1)=C(C)C3=O,TGI,HCT-15 colon,> 10 µM
same,TGI,HOP-62 NSCLC,> 10 µM
same,TGI,MDA-MB-435,> 10 µM
COc1ccc(C(=O)N(C(=S)OCCOc2ccccc2)c2ccccc2)cc1,TGI,HCT-15 colon,> 100 µM
same,TGI,HOP-62 NSCLC,> 100 µM
same,TGI,MDA-MB-435,> 100 µM
O=C1NC(=O)C(COCc2ccccc2)C2=C1SCCC2 (stereo not given),TGI,HCT-15 colon,> 100 µM
same,TGI,HOP-62 NSCLC,> 100 µM
same,TGI,MDA-MB-435,> 100 µM
CC(C)(CO)NC(=O)Nc1c(C(F)(F)F)cc(-c2ccccc2)[nH]c1=O,TGI,HCT-15 colon,> 100 µM
same,TGI,HOP-62 NSCLC,> 100 µM
same,TGI,MDA-MB-435,> 100 µM
O=C(Cc1ccccc1)NNc1nc(NNC(=O)c2ccncc2)nc(Nc2cccc(Cl)c2)n1,TGI,HCT-15 colon,> 10 µM
same,TGI,HOP-62 NSCLC,> 10 µM
CC(C)C/C=C/C1=NN(c2cccc(S(=O)(=O)O)c2)C2(C1)SCC(=O)N2c1nc2ccccc2s1 (stereo not given),TGI,HCT-15 colon,> 100 µM
same,TGI,MDA-MB-435,84.6 µM
C=C1C(=O)O[C@H]2[C@H]3O[C@@H](C[C@@H]12)[C@@]1(C)CC[C@H](O1)C(C)=CCC[C@H]3C,TGI,HCT-15 colon,3.2 µM
same,TGI,HOP-62 NSCLC,19.1 µM
same,TGI,MDA-MB-435,2.92 µM
O=C1CC(C(=O)N2CCCCC2)n2c(=O)n(-c3ccccc3)c(=O)n2C1 (stereo not given),TGI,HCT-15 colon,> 100 µM
same,TGI,HOP-62 NSCLC,> 100 µM
CC(=O)N1N(c2ccc([N+](=O)[O-])cc2)C(=O)C1(C)C,TGI,HCT-15 colon,34.5 µM
same,TGI,HOP-62 NSCLC,40.4 µM
same,TGI,MDA-MB-435,63.1 µM
CCOc1cc2c(cc1O)/C(=N/NS(=O)(=O)c1ccc(C)cc1)C[C@@H]1[C@@H]2CC[C@]2(C)[C@@H](O)CC[C@@H]12,TGI,HCT-15 colon,> 100 µM
same,GI50,HOP-62 NSCLC,5.14 µM
same,TGI,HOP-62 NSCLC,> 100 µM
same,GI50,MDA-MB-435,0.917 µM
same,TGI,MDA-MB-435,> 100 µM
O=C1Nc2ccccc2/C1=C/c1c(Cl)[nH]c2ccc(O)cc12,TGI,HCT-15 colon,17.5 µM
same,TGI,HOP-62 NSCLC,19.1 µM
same,TGI,MDA-MB-435,0.947 µM
O=C1CCCCC/C1=C\c1ccc(Cl)cc1,TGI,HCT-15 colon,> 100 µM
same,TGI,HOP-62 NSCLC,> 100 µM
same,TGI,MDA-MB-435,58.2 µM
O=c1oc2c(ccc3ccccc32)cc1C1=CSC2=NCCN12,TGI,HCT-15 colon,> 100 µM
same,TGI,HOP-62 NSCLC,> 100 µM
same,TGI,MDA-MB-435,> 100 µM
CC1=N[C@](C)(C2CC3C=CC2C3=O)COC1=O (stereo not given in full),TGI,HOP-62 NSCLC,> 100 µM
same,TGI,MDA-MB-435,> 100 µM
Cc1ccc(S(=O)(=O)n2c3c(c4ccccc42)CCN2CCC(Br)C[C@@H]32)cc1 (stereo not given in full),TGI,HCT-15 colon,24.4 µM
same,TGI,HOP-62 NSCLC,28.5 µM
same,TGI,MDA-MB-435,14.4 µM
COC(C)(C)CCc1[nH]c2ccccc2c1CC(=O)NCCc1cncn1C,TGI,HCT-15 colon,> 100 µM
same,TGI,MDA-MB-435,> 100 µM
COC(=O)C1CCC(=O)N1C(c1ccccc1)c1cc(OC)c(OC)c(OC)c1 (stereo not given),TGI,HCT-15 colon,> 100 µM
same,TGI,HOP-62 NSCLC,> 100 µM
same,TGI,MDA-MB-435,59.7 µM
c1ccc(C2OCC(OC3CCCCO3)CO2)cc1 (stereo not given),TGI,HCT-15 colon,> 100 µM
same,TGI,HOP-62 NSCLC,> 100 µM
same,TGI,MDA-MB-435,> 100 µM
COc1cccc(C2SCC(=O)N2c2ccc(-n3c(-c4ccccc4)nc4ccccc4c3=O)cc2)c1OC (stereo not given),TGI,HCT-15 colon,> 100 µM
same,TGI,HOP-62 NSCLC,> 100 µM
same,TGI,MDA-MB-435,> 100 µM
